Structures can show the parent of a compound that is named as a salt.
Legend:
ddY-type mice = assay: Analgesic efficacy test (1): acetic acid writhing test (nociceptive pain model animal); type: in vivo; details: Mus musculus, 25 min, writhing number, male ddY mice, acetic acid i.p. 25 min after administration, mean ± standard error, read-out: Percent Suppression (%); for inhibition in vivo at 100 mg/kg: oral single dose 100 mg/kg; for inhibition in vivo at 10 mg/kg: oral single dose 10 mg/kg
Text: A compound of the present invention was orally administered to mice, to carry out an analgesic efficacy test according to acetic acid writhing test (nociceptive pain model animal). As an experimental animal, 4-week old male ddY-type mice were previously bred, and thereafter 8 mice per one group were used in the experiment. A solution or suspension prepared by dissolving or suspending a compound of the present invention in a 0.5% (w/v) aqueous CMC-Na solution was orally administered as a test substance in a single dose. While, to a control group, a 0.5% (w/v) aqueous CMC-Na solution was administered in the same manner. After 25 minutes from administration, the mice were intraperitoneally administered with a 0.7% (v/v) acetic acid/physiological saline at the dose of 10 mL/kg. From 5 minutes thereafter, writhing number in a 10-minute period was counted, and a suppressive rate for each individual (mean±standard error) was calculated by the following formula: […]
In the test for significance difference, Baltlett's test was carried out in the comparison between multiple groups of the group administered with test substance with the control group. In the case of homoscedasticity, Dunnett's multiple comparison test of parametrics, and in the case of heteroscedasticity, Dunnett's multiple comparison test of non-parametrics were used. In addition, in the test of dose dependency, Jockheere-Terpstra's test was used. In all cases, significance difference was considered to be found at P<0.05.

[1] = Test of blood kinetics in the rats; type: in vivo; details: rat, plasma, 2 mg/kg, fasted Wistar male rats, oral single dose of mixed solution of five compounds, each compound 2 mg/5 mL/kg, n=5, LC-MS; for AUC(0-inf): read-out: AUC0-∞ (area under the curve for concentration in blood, time 0 to infinite hours); for Cmax: read-out: Cmax (maximum concentration in plasma)
Procedure: Ten milligrams of a compound of the present invention was properly converted to a sodium salt with the same amount of sodium hydroxide, where necessary, and each was dissolved in 5 mL of water. Five compounds each among these aqueous solutions of the compounds of the present inventions were mixed, to prepare a mixed solution containing 0.4 mg/mL each of each compound. Six-week old Wistar SPF male rats that were fasted were orally administered with the mixed solution in a single dose using a gavage tube (each compound 2 mg/5 mL/kg, n=5). At time points of 0.25, 0.5, 1, 2, 4, and 8 hours after the administration, about 150 μL of blood was collected using a heparin-added capillary tube from veins of rat tails. The capillary tubes were centrifuged to collect the plasma. The plasma sample was deprotenized and the supernatant was diluted to prepare each of measurement sample solutions. The concentration of the compound of the present invention in each of measurement sample solutions was quantified using LC-MS, and Cmax (maximum concentration in plasma) and AUC (area under the curve for concentration in blood, time 0 to infinite (∞) hours) of the compounds of the present invention were calculated.

SMILES	inhibition in vivo at 100 mg/kg (ddY-type mice)	inhibition in vivo at 10 mg/kg (ddY-type mice)	AUC(0-inf) [1]	Cmax [1]	further results
O=C(C=Cc1cccc(O)c1)N[C@@H](Cc1c[nH]c2ccccc12)C(=O)O [Compound 6, N^α-[3-(3-Hydroxyphenyl)acryloyl]-L-tryptophan]	39.2 ± 15.4%				
O=C(C=Cc1ccc(O)cc1)N[C@@H](Cc1c[nH]c2ccccc12)C(=O)O [Compound 7, N^α-[3-(4-Hydroxyphenyl)acryloyl]-L-tryptophan]	37.3 ± 11.8%				
O=C(C=Cc1ccccc1Cl)N[C@@H](Cc1c[nH]c2ccccc12)C(=O)O [Compound 12, N^α-[3-(2-Chlorophenyl)acryloyl]-L-tryptophan]	34.9 ± 11.5%				
O=C(C=Cc1ccccc1F)N[C@H](Cc1c[nH]c2ccccc12)C(=O)O [Compound 24, N^α-[3-(2-Fluorophenyl)acryloyl]-D-tryptophan]		35.8 ± 9.3%	148000 ng·h/mL	15000 ng/mL	
N#CC(=Cc1ccccc1)C(=O)N[C@@H](Cc1c[nH]c2ccccc12)C(=O)O [Compound 25, N^α-(2-Cyano-3-phenylacryloyl)-L-tryptophan]		41.2 ± 11.1%	6800 ng·h/mL	1500 ng/mL	
Cn1cc(C[C@H](NC(=O)C=Cc2ccccc2O)C(=O)O)c2ccccc21 [Compound 26, N^α-[3-(2-Hydroxyphenyl)acryloyl]-1-methyl-L-tryptophan]		30.5 ± 9.2%			
Cn1cc(C[C@H](NC(=O)C=Cc2ccccc2F)C(=O)O)c2ccccc21 [Compound 27, N^α-[3-(2-Fluorophenyl)acryloyl]-1-methyl-L-tryptophan]			404000 ng·h/mL	53300 ng/mL	inhibition in vivo at 3 mg/kg (ddY-type mice; oral single dose 3 mg/kg): 45 ± 10%
Cn1cc(C[C@H](NC(=O)C=Cc2ccc(F)cc2)C(=O)O)c2ccccc21 [Compound 28, N^α-[3-(4-Fluorophenyl)acryloyl]-1-methyl-L-tryptophan]		56.5 ± 5.3%	183000 ng·h/mL	37700 ng/mL	
Cn1cc(C[C@H](NC(=O)C=Cc2ccccc2C#N)C(=O)O)c2ccccc21 [Compound 30, N^α-[3-(2-Cyanophenyl)acryloyl]-1-methyl-L-tryptophan]		35.8 ± 9.9%	13400 ng·h/mL	3600 ng/mL	
Cn1cc(C[C@H](NC(=O)C=Cc2c(F)cccc2F)C(=O)O)c2ccccc21 [Compound 31, N^α-[3-(2,6-Difluorophenyl)acryloyl]-1-methyl-L-tryptophan]	31.5 ± 9.7%				
Cn1cc(C[C@H](NC(=O)C=Cc2cccc(C#N)c2)C(=O)O)c2ccccc21 [Compound 34, N^α-[3-(3-Cyanophenyl)acryloyl]-1-methyl-L-tryptophan]		45.2 ± 6.3%	16500 ng·h/mL	3200 ng/mL	
Cn1cc(C[C@H](NC(=O)C=Cc2ccc(Oc3ccccc3)cc2)C(=O)O)c2ccccc21 [Compound 35, 1-Methyl-N^α-[3-(4-phenoxyphenyl)acryloyl]-L-tryptophan]	55.2 ± 7.4%				
Cn1cc(C[C@H](NC(=O)C=Cc2ccc(C#N)cc2)C(=O)O)c2ccccc21 [Compound 36, N^α-[3-(4-Cyanophenyl)acryloyl]-1-methyl-L-tryptophan]		49.7 ± 11.3%	11400 ng·h/mL	2300 ng/mL	
Cn1cc(C[C@H](NC(=O)C(C#N)=Cc2ccccc2F)C(=O)O)c2ccccc21 [Compound 37, N^α-[2-Cyano-3-(2-fluorophenyl)acryloyl]-1-methyl-L-tryptophan]		37.9 ± 7.5%	6800 ng·h/mL	1500 ng/mL	
COc1ccc(C[C@H](NC(=O)C=Cc2ccccc2F)C(=O)O)cc1 [Compound 40, N-[3-(2-Fluorophenyl)acryloyl]-O^4-methyl-L-tyrosine]		42.3 ± 7%	61700 ng·h/mL	48700 ng/mL	
COc1ccc(C[C@H](NC(=O)C=Cc2cccc(F)c2)C(=O)O)cc1 [Compound 41, N-[3-(3-Fluorophenyl)acryloyl]-O^4-methyl-L-tyrosine]	47.3 ± 15.7%				

SMILES	inhibition in vivo at 100 mg/kg (ddY-type mice)	inhibition in vivo at 10 mg/kg (ddY-type mice)	AUC(0-inf) [1]	Cmax [1]	further results
COc1ccc(C[C@H](NC(=O)C=Cc2ccc(F)cc2)C(=O)O)cc1 [Compound 42, N-[3-(4-Fluorophenyl)acryloyl]-O^4-methyl-L-tyrosine]	52.7 ± 8.3%		57700 ng·h/mL	18800 ng/mL	
COc1ccc(C[C@H](NC(=O)C=Cc2cccc(O)c2)C(=O)O)cc1 [Compound 43, N-[3-(3-Hydroxyphenyl)acryloyl]-O^4-methyl-L-tyrosine]		45.3 ± 10.8%			
COc1ccc(C[C@H](NC(=O)C=Cc2ccc(O)cc2)C(=O)O)cc1 [Compound 44, N-[3-(4-Hydroxyphenyl)acryloyl]-O^4-methyl-L-tyrosine]		48 ± 10.3%			
COc1ccc(C[C@H](NC(=O)C=Cc2ccccc2C#N)C(=O)O)cc1 [Compound 46, N-[3-(2-Cyanophenyl)acryloyl]-O^4-methyl-L-tyrosine]	38.7 ± 11.3%				
COc1ccc(C[C@H](NC(=O)C=Cc2ccccc2C(F)(F)F)C(=O)O)cc1 [Compound 47, O^4-Methyl-N-[3-(2-Trifluoromethylphenyl)acryloyl]-L-Tyrosine]	36.2 ± 11.2%				
COc1ccc(C[C@H](NC(=O)C=Cc2ccccc2OC)C(=O)O)cc1 [Compound 48, N-[3-(2-Methoxyphenyl)acryloyl]-O^4-methyl-L-tyrosine]		43.2 ± 7.3%			
COc1ccc(C[C@H](NC(=O)C=Cc2ccccc2Cl)C(=O)O)cc1 [Compound 49, N-[3-(2-Chlorophenyl)acryloyl]-O^4-methyl-L-tyrosine]	31.8 ± 7%				
COc1ccc(C[C@H](NC(=O)C=Cc2c(F)cccc2F)C(=O)O)cc1 [Compound 50, N-[3-(2,6-Difluorophenyl)acryloyl]-O^4-methyl-L-tyrosine]	35.1 ± 15.4%				
COc1ccc(C[C@H](NC(=O)C=Cc2cc(C(F)(F)F)cc(C(F)(F)F)c2)C(=O)O)cc1 [Compound 53, N-{3-[3,5-Bis(trifluoromethyl)phenyl]acryloyl}-O^4-methyl-L-tyrosine]	32 ± 14.6%				
COc1ccc(C[C@H](NC(=O)C=Cc2cccc(C#N)c2)C(=O)O)cc1 [Compound 54, N-[3-(3-Cyanophenyl)acryloyl]-O^4-methyl-L-tyrosine]	33.3 ± 10%				
NCCCC[C@H](NC(=O)C=Cc1ccccc1F)C(=O)O [Compound 61, N^α-[3-(2-Fluorophenyl)acryloyl]-L-lysine hydrochloride]	40.5 ± 7.8%				
O=C(C=Cc1ccccc1F)N[C@@H](Cc1ccc(O)cc1)C(=O)O [Compound 62, N-[3-(2-Fluorophenyl)acryloyl]-L-tyrosine]		39.2 ± 13.5%			
NCCC[C@H](NC(=O)C=Cc1ccccc1F)C(=O)O [Compound 63, N^α-[3-(2-Fluorophenyl)acryloyl]-L-ornithine hydrochloride]		41.1 ± 7.8%			
NC(=O)CC[C@H](NC(=O)C=Cc1ccccc1F)C(=O)O [Compound 65, N^α-[3-(2-Fluorophenyl)acryloyl]-L-glutamine]	31.6 ± 13.1%				
O=C(C=Cc1ccccc1F)N[C@@H](CO)C(=O)O [Compound 66, N-[3-(2-Fluorophenyl)acryloyl]-L-serine]	56 ± 6.9%				
O=Cn1cc(C[C@H](NC(=O)C=Cc2ccccc2F)C(=O)O)c2ccccc21 [Compound 68, N^α-[3-(2-Fluorophenyl)acryloyl]-1-formyl-L-tryptophan]	55.4 ± 9.9%				
